Reference: article PMC11417357, “The SAVED domain of the type III CRISPR protease CalpL is a ring nuclease” (Nucleic Acids Research, 2024)
Substitutions are numbered along the chain they refer to. Like-named read-outs stand apart in the source and are kept apart here.

Columns and labels:
Assay in all cases: SPR, single-cycle kinetics, […] model, CalpL amine-coupled to CM5 chip
Type in all cases: binding
Details in all cases: 20 mM Tris pH 8, 50 mM NaCl, 0.05% Tween20, 25 °C
[1] = biological target: T1, CalpL (Sulfurihydrogenibium sp. YO3AOP1, UniProt Z9OF32SUC9)
T1 construct: codon-optimized CalpL, Lon protease domain plus C-terminal SAVED domain; N-terminal 10xHis-TEV tag removed by TEV protease; expressed in E. coli BL21(DE3); monomer that oligomerizes with cA4
T1 sequence (Z9OF32SUC9 2-496): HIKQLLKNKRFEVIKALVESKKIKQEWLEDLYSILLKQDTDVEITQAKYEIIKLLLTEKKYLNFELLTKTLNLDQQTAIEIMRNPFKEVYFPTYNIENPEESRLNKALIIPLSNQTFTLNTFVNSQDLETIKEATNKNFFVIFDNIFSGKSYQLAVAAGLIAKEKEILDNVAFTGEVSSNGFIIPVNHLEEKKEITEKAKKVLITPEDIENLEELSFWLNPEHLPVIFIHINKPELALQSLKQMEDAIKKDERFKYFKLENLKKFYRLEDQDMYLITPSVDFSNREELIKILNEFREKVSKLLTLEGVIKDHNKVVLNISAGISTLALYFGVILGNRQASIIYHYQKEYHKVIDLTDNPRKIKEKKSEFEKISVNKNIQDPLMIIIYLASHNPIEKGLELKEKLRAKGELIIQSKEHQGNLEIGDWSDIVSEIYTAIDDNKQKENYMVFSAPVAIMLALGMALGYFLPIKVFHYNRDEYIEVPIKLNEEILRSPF

[2] = biological target: T2, CalpL (Sulfurihydrogenibium sp. YO3AOP1, UniProt Z9OF32SUC9, H345A)
T2 construct: codon-optimized CalpL, Lon protease domain plus C-terminal SAVED domain; N-terminal 10xHis-TEV tag removed by TEV protease; expressed in E. coli BL21(DE3); monomer that oligomerizes with cA4
T2 sequence (Z9OF32SUC9 2-496 H345A): T1 sequence (Z9OF32SUC9 2-496) with H344A

[3] = biological target: T3, CalpL (Sulfurihydrogenibium sp. YO3AOP1, UniProt Z9OF32SUC9, H474A)
T3 construct: codon-optimized CalpL, Lon protease domain plus C-terminal SAVED domain; N-terminal 10xHis-TEV tag removed by TEV protease; expressed in E. coli BL21(DE3); monomer that oligomerizes with cA4
T3 sequence (Z9OF32SUC9 2-496 H474A): T1 sequence (Z9OF32SUC9 2-496) with H473A

[4] = biological target: T1, CalpL; remark: listed apart in the source
[5] = biological target: T4, CalpL (Sulfurihydrogenibium sp. YO3AOP1, UniProt Z9OF32SUC9, H392A)
T4 construct: codon-optimized CalpL, Lon protease domain plus C-terminal SAVED domain; N-terminal 10xHis-TEV tag removed by TEV protease; expressed in E. coli BL21(DE3); monomer that oligomerizes with cA4
T4 sequence (Z9OF32SUC9 2-496 H392A): T1 sequence (Z9OF32SUC9 2-496) with H391A

[6] = biological target: T5, CalpL (Sulfurihydrogenibium sp. YO3AOP1, UniProt Z9OF32SUC9, R361E)
T5 construct: codon-optimized CalpL, Lon protease domain plus C-terminal SAVED domain; N-terminal 10xHis-TEV tag removed by TEV protease; expressed in E. coli BL21(DE3); monomer that oligomerizes with cA4
T5 sequence (Z9OF32SUC9 2-496 R361E): T1 sequence (Z9OF32SUC9 2-496) with R360E

[7] = biological target: T6, CalpL (Sulfurihydrogenibium sp. YO3AOP1, UniProt Z9OF32SUC9, R361A)
T6 construct: codon-optimized CalpL, Lon protease domain plus C-terminal SAVED domain; N-terminal 10xHis-TEV tag removed by TEV protease; expressed in E. coli BL21(DE3); monomer that oligomerizes with cA4
T6 sequence (Z9OF32SUC9 2-496 R361A): T1 sequence (Z9OF32SUC9 2-496) with R360A

Row | SMILES | Kd [2] [nM] | Kd [3] [nM] | Kd [5] [nM] | further results
1 | Nc1ncnc2c1ncn2[C@@H]1O[C@@H]2COP(=O)(O)O[C@H]3[C@@H](F)[C@H](n4cnc5c(N)ncnc54)O[C@@H]3COP(=O)(O)O[C@H]3[C@@H](F)[C@H](n4cnc5c(N)ncnc54)O[C@@H]3COP(=O)(O)O[C@H]3[C@@H](F)[C@H](n4cnc5c(N)ncnc54)O[C@@H]3COP(=O)(O)O[C@H]2[C@H]1F [2′F-cA4] | 18.9 | 0.224 | – | Kd ([1]; non-hydrolysable analogue, read-out: KD): 1 nM
2 | Nc1ncnc2c1ncn2[C@@H]1O[C@H](COP(=O)(O)O[C@H]2[C@@H](O)[C@H](n3cnc4c(N)ncnc43)O[C@@H]2CO)[C@@H](OP(=O)(O)O)[C@H]1O [A2] | – | – | – | KD [4]: decrease in affinity of CalpL towards A4 and A2 compared to cA4
3 | Nc1ncnc2c1ncn2[C@@H]1O[C@H](COP(=O)(O)O[C@H]2[C@@H](O)[C@H](n3cnc4c(N)ncnc43)O[C@@H]2COP(=O)(O)O[C@H]2[C@@H](O)[C@H](n3cnc4c(N)ncnc43)O[C@@H]2COP(=O)(O)O[C@H]2[C@@H](O)[C@H](n3cnc4c(N)ncnc43)O[C@@H]2CO)[C@@H](OP(=O)(O)O)[C@H]1O [A4] | – | – | 1.72 | Kd ([1]; apparent, read-out: apparent KD): 158 nM
4 | Nc1ncnc2c1ncn2[C@@H]1O[C@@H]2COP(=O)(O)O[C@H]3[C@@H](O)[C@H](n4cnc5c(N)ncnc54)O[C@@H]3COP(=O)(O)O[C@H]3[C@@H](O)[C@H](n4cnc5c(N)ncnc54)O[C@@H]3COP(=O)(O)O[C@H]3[C@@H](O)[C@H](n4cnc5c(N)ncnc54)O[C@@H]3COP(=O)(O)O[C@H]2[C@H]1O [cA4] | 68.7 | 48.6 | 0.0308 | Kd ([1]; apparent: ligand cleaved on the chip, depends on immobilization density, read-out: apparent KD): 50 nM; Kd [6]: 1 nM; Kd [7]: 0.87 nM
